According to paper PMC7823583, “Discovery of Potent Dual EGFR/HER2 Inhibitors Based on Thiophene Scaffold Targeting H1299 Lung Cancer Cell Line” (Pharmaceuticals, 2020):

Tests used:
NSCLC cell line H1299 = assay: In vitro cytotoxic activity against H1299, sulfo-rhodamine B (SRB) assay; conditions: Homo sapiens, NCI-H1299, 48 h, read-out: IC50 against H1299
Procedure: The potential cytotoxic activity of the target compounds on H1299 lung cancer cell line was tested using sulfo-rhodamine B (SRB) assay according to Skehan method [20]. Single cells were plated in 96-multiwell plates for 24 h before treatment with the compounds. A single concentration of the tested compounds was added to the cell monolayer. Monolayer cell was incubated with the compounds for 48 h at 37 °C and in atmosphere of 5% CO2. After 48 h, cell was fixed, washed and stained with Sulforhodamine-B stain. Acetic acid was then used to wash excess stain and attached stain was recovered with Tris ethylenediaminetetraacetic acid (EDTA) buffer. Color intensity was measured in an enzyme-linked immunosorbent assay (ELISA).

EGFR = EGFR (Homo sapiens, UniProt P00533); conditions: earlier study of the group; read-out: IC50 against EGFR; cited from earlier work
HER2 = HER2 (Homo sapiens, UniProt P04626); assay: HER2 kinase inhibitory assay (Kinase-Glo Plus luminescence kinase assay); format: biochemical; conditions: read-out: IC50 against HER2
HER2, sequence (P04626 23-1255): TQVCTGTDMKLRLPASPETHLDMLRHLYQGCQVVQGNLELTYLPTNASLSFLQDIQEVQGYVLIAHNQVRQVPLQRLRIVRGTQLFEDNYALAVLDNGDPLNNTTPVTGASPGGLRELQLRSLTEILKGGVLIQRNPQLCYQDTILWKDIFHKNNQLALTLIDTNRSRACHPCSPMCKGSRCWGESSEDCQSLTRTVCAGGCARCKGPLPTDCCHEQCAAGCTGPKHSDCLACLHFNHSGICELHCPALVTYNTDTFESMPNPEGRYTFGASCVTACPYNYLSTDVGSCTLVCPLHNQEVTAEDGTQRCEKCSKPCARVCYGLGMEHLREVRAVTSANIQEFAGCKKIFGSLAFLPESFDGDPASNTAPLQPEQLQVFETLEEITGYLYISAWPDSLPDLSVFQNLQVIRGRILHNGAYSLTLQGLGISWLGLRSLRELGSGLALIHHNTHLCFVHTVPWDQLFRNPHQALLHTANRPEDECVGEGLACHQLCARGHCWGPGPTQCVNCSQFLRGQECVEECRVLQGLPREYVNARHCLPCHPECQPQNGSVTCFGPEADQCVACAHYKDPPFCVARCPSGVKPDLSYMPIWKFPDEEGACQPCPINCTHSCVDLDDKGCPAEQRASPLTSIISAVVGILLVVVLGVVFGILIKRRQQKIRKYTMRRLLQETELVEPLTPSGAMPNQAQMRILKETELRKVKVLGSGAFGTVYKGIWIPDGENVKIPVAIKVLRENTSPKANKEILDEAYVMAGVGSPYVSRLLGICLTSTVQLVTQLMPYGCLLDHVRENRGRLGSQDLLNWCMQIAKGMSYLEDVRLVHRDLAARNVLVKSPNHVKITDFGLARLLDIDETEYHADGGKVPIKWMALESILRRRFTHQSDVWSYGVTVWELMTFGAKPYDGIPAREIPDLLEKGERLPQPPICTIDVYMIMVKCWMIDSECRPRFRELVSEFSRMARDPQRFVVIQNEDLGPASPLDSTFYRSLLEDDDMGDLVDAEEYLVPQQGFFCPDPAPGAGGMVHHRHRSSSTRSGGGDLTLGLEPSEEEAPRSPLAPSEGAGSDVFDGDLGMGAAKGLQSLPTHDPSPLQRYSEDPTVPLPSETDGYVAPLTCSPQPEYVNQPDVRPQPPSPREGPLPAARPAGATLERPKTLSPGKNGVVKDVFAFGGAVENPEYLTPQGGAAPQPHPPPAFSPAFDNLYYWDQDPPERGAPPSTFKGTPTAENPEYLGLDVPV

EGFR, sequence (P00533 25-1210): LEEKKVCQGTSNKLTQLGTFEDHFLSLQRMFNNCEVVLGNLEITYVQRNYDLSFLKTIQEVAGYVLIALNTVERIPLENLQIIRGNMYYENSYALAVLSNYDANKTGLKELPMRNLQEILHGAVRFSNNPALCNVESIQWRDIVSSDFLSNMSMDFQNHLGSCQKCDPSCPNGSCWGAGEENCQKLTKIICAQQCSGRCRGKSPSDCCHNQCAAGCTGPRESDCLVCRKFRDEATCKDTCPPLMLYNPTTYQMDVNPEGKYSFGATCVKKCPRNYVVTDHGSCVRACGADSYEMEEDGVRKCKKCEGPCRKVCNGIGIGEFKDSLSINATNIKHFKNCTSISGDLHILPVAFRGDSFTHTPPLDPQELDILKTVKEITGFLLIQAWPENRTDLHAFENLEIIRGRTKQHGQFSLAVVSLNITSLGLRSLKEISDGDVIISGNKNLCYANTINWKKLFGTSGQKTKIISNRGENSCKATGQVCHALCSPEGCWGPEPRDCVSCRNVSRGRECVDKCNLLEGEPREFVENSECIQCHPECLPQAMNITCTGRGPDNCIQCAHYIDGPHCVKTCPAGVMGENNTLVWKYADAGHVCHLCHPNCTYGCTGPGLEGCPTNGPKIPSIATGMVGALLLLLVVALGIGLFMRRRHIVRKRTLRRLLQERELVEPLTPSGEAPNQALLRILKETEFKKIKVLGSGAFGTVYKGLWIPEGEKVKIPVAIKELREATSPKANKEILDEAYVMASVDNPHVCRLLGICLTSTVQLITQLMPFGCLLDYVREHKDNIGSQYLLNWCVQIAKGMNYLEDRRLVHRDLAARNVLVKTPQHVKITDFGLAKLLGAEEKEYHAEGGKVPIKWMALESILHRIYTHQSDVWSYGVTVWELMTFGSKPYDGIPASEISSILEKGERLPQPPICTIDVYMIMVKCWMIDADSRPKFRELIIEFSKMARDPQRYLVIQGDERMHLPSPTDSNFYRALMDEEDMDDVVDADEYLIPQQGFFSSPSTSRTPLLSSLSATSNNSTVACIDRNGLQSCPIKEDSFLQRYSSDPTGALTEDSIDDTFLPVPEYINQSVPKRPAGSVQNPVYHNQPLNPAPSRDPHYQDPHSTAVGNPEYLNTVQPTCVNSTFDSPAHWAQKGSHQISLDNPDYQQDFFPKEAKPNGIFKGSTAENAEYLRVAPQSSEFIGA

Compound	IC50 (NSCLC cell line H1299)	IC50 (EGFR)	IC50 (HER2)
Nc1cccc(Nc2nnnc3sc4c(c23)CCCC4)c1 [Compound 13b, 3-(5,6,7,8-Tetrahydro-7H-cyclohexa[4:5]thieno[2,3-d][1,2,3]triazin-4ylamino)benzene-1,3-diamine]	25 nM	~0.33 nM	–
COc1ccc(C=NNCC(=O)Nc2sc3c(c2C#N)CCCC3)cc1 [Compound 25b, N-(3-Cyano-4,5,6,7-tetrahydrobenzo[b]thiophen-2-yl)-2-(2-(4-methoxybenzylidene)hydrazinyl)acetamide]	18.5 nM	–	–
N#Cc1c(NC(=O)CNN=Cc2cccc([N+](=O)[O-])c2)sc2c1CCCC2 [Compound 25a, N-(3-Cyano-4,5,6,7-tetrahydrobenzo[b]thiophen-2-yl)-2-(2-(3-nitrobenzylidene)hydrazinyl)acetamide]	18.5 nM	–	–
Oc1ccc(Nc2nnnc3sc4c(c23)CCC4)cc1 [Compound 8, reference compound]	–	~38 nM	–
Cc1cc(C)c2c(NCC(=O)Nc3sc4c(c3C#N)CCCC4)n[nH]c2n1 [Compound 21b, N-(3-Cyano-4,5,6,7-tetrahydrobenzo[b]thiophen-2-yl)-2-(4,6-dimethyl-1H-pyrazolo[3,4-b]pyridin-3-ylamino)acetamide]	13.7 nM	–	–
C(=Nc1cccc(Nc2nnnc3sc4c(c23)CCC4)c1)c1ccccc1 [Compound 14a, 3-(5,6-Dihydro-7H-cyclopenta[4:5]thieno[2,3-d][1,2,3]triazin-4-ylamino)-N-benzylidenebenzene-1,3-diamine]	25.7 nM	–	–
N#Cc1c(NC(=O)CNc2n[nH]c3ncccc23)sc2c1CCCC2 [Compound 21a, 2-(1H-Pyrazolo[3,4-b]pyridin-3-ylamino)-N-(3-cyano4,5,6,7-tetrahydrobenzo[b]thiophen-2-yl)acetamide]	12.5 nM	–	0.14 nM
Nc1cccc(Nc2nnnc3sc4c(c23)CCC4)c1 [Compound 13a, 3-(5,6-dihydro-7H-cyclopenta[4:5]thieno[2,3-d][1,2,3]triazin-4-ylamino)benzene-1,3-diamine]	28.8 nM	–	–
N#Cc1c(NC(=O)CNc2onc3ncccc23)sc2c1CCCC2 [Compound 23, N-(3-Cyano-4,5,6,7-tetrahydrobenzo[b]thiophen-2-yl)-2-(isoxazolo[3,4-b]pyridin-3-ylamino)acetamide]	18.4 nM	–	–
Oc1ccccc1C=Nc1cccc(Nc2nnnc3sc4c(c23)CCC4)c1 [Compound 15a, 3-(5,6-Dihydro-7H-cyclopenta[4:5]thieno[2,3-d][1,2,3]triazin-4-ylamino)-N-(2-hydroxybenzylidene)benzene-1,3-diamine]	32.8 nM	–	–
O=[N+]([O-])c1cccc(C=Nc2cccc(Nc3nnnc4sc5c(c34)CCCC5)c2)c1 [Compound 17b, 3-(5,6,7,8-Tetrahydro-7H-cyclohexa[4:5]thieno[2,3-d][1,2,3]triazin-4-ylamino)-N-(3-nitrobenzylidene)benzene-1,3-diamine]	38.1 nM	–	–
Oc1ccccc1C=Nc1cccc(Nc2nnnc3sc4c(c23)CCCC4)c1 [Compound 15b, 3-(5,6,7,8-Tetrahydro-7H-cyclohexa[4:5]thieno[2,3-d][1,2,3]triazin-4-ylamino)-N-(2-hydroxybenzylidene)benzene-1,3-diamine]	34 nM	–	–
